From patent publication US20200131669A1, “CYCLIC PEPTIDE COMPOUND HAVING HIGH MEMBRANE PERMEABILITY, AND LIBRARY CONTAINING SAME” (Chugai Seiyaku Kabushiki Kaisha, priority 2017, published 2020)
Starred links: 1 amine or outer side, 2 acyl side, 3 side chain; linkers in the order of their positions; H or OH if unused. Positions of bridges follow the written chain, without caps; N, C: chain ends. Non-standard residues stand in square brackets, D forms with d. Residues, ends and D or L forms follow the SMILES beside them. *: point of attachment. NMeAbu(3,3-F2-piperidino) = CN[C@@H](CCN1CCCC(F)(F)C1)C(=O)O; NMeAbu(4-morpholino) = CN[C@@H](CCN1CCOCC1)C(=O)O; Glu(NHSO2Me) = CS(=O)(=O)NC(=O)CC[C@H](N)C(=O)O; Phe(4-CF3) = N[C@@H](Cc1ccc(C(F)(F)F)cc1)C(=O)O; 3Pal(6-NMe2) = CN(C)c1ccc(C[C@H](N)C(=O)O)cn1; Phe(4-CHF2) = N[C@@H](Cc1ccc(C(F)F)cc1)C(=O)O; NMePhe(3-Cl) = CN[C@@H](Cc1cccc(Cl)c1)C(=O)O; NMeW = CN[C@@H](Cc1c[nH]c2ccccc12)C(=O)O; hNle(7,7-F2) = N[C@@H](CCCCC(F)F)C(=O)O; N(isopentyl)Gly = CC(C)CCNCC(=O)O; Hyp = O=C(O)[C@@H]1C[C@@H](O)CN1; NMeF = CN[C@@H](Cc1ccccc1)C(=O)O; NMeGABA = CN(CCCC(=O)[*:2])[*:1]; NMeD = CN[C@@H](CC(=O)O)C(=O)O; NMeL = CN[C@@H](CC(C)C)C(=O)O; NMeV = CN[C@H](C(=O)O)C(C)C; NMeA = CN[C@@H](C)C(=O)O; Piperidide = C1CCN(*)CC1; NBuGly = CCCCNCC(=O)O; NPrGly = CCCNCC(=O)O; Sar = CNCC(=O)O; tBu = CC(C)(C)*; Propyl = CCC*

test: Caco-2 membrane permeability, improved method as used in the following Examples (96-well, 20 to 24 h preincubation); assay type: in vitro ADME; settings: human, Caco-2, Caco-2
Outline: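 Papp (cm/sec) was derived from LC/MS of basal samples collected 180 min after apical dosing in FaSSIF/HBSS pH 6.0 with 1% DMSO, against a basal HBSS pH 7.4 receiver containing 4% BSA. Three-week Caco-2 cultures were first preincubated with compound in DMEM+FaSSIF at 37 °C for 20–24 h.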

Row | Structure (SMILES) | Papp A→B at 180 min [×10⁻⁶ cm/s]
1 | CCCOC[C@@H]1NC(=O)[C@H](CC(C)C)N(C)C(=O)[C@H](Cc2ccccc2)N(C)C(=O)CN(C)C(=O)[C@H]([C@@H](C)O)NC(=O)[C@H](CC(C)C)N(C)C(=O)[C@H]([C@@H](C)CC)NC(=O)[C@H](Cc2ccccc2)N(C)C(=O)CN(C)C(=O)C[C@@H](C(=O)N2CCCCC2)NC(=O)[C@H](CC(C)C)N(C)C1=O [pd330] ([Sar][NMeF]I[NMeL]T[Sar][NMeF][NMeL]S(Propyl)[NMeL]D-Piperidide; lactam N-11) | 1.8
2 | CCCOC[C@@H]1NC(=O)[C@H](CC(C)C)N(C)C(=O)CN(C)C(=O)[C@H]([C@@H](C)O)NC(=O)[C@H](CC(C)C)N(C)C(=O)[C@H](CC(C)C)NC(=O)[C@H](Cc2ccccc2)N(C)C(=O)[C@@H](C(C)C)NC(=O)C[C@@H](C(=O)N2CCCCC2)NC(=O)[C@H](CC(C)C)N(C)C(=O)[C@H](Cc2ccccc2)N(C)C1=O [pd325] ([dV][NMeF]L[NMeL]T[Sar][NMeL]S(Propyl)[NMeF][NMeL]D-Piperidide; lactam N-11) | 2.2
3 | CC(C)CCN1CC(=O)N(C)[C@@H](CC(C)C)C(=O)N[C@@H](COC(C)(C)C)C(=O)N(C)[C@@H](Cc2ccccc2)C(=O)N(C)[C@@H](C(C)C)C(=O)N[C@H](C(=O)N2CCCCC2)CC(=O)N[C@H](C)C(=O)N(C)[C@@H](CC(C)C)C(=O)N[C@@H](Cc2ccc(N(C)C)nc2)C(=O)N(C)[C@@H](CC(C)C)C(=O)N[C@@H]([C@@H](C)O)C1=O [pd396] ([dA][NMeL][3Pal(6-NMe2)][NMeL]T[N(isopentyl)Gly][NMeL]S(tBu)[NMeF][NMeV]D-Piperidide; lactam N-11) | 1.5
4 | CC(C)C[C@@H]1NC(=O)[C@H](Cc2ccccc2)N(C)C(=O)[C@H](Cc2ccccc2)N(C)C(=O)[C@H](CC(C)C)NC(=O)[C@H](CC(C)C)N(C)C(=O)CCCN(C)C(=O)C[C@@H](C(=O)N2CCCCC2)NC(=O)[C@H](C)N(C)C(=O)[C@H](CCN2CCCC(F)(F)C2)N(C)C(=O)[C@H]([C@@H](C)O)NC(=O)[C@H](CC(C)C)N(C)C1=O [pd390] ([NMeGABA][NMeL]L[NMeF][NMeF]L[NMeL]T[NMeAbu(3,3-F2-piperidino)][NMeA]D-Piperidide; lactam N-11) | 2
5 | CC(C)C[C@@H]1NC(=O)[C@H](C)N(C)C(=O)C[C@@H](C(=O)N2CCCCC2)NC(=O)[C@H](C(C)C)N(C)C(=O)CN(C)C(=O)[C@H]([C@@H](C)O)NC(=O)[C@H](CCN2CCCC(F)(F)C2)N(C)C(=O)[C@H](Cc2ccccc2)N(C)C(=O)[C@H](CC(C)C)NC(=O)[C@H](Cc2ccccc2)N(C)C(=O)[C@H](CC(C)C)N(C)C1=O [pd391] ([NMeA]L[NMeL][NMeF]L[NMeF][NMeAbu(3,3-F2-piperidino)]T[Sar][NMeV]D-Piperidide; lactam N-11) | 2.4
6 | CC(C)C[C@H]1C(=O)N[C@@H](COC(C)(C)C)C(=O)N(C)[C@@H](Cc2ccccc2)C(=O)N(C)[C@@H](C(C)C)C(=O)N[C@H](C(=O)N2CCCCC2)CC(=O)N[C@H](C)C(=O)N(C)[C@@H](Cc2ccccc2)C(=O)NC(COc2cccc(Cl)c2)C(=O)N(C)[C@@H](C(C)C)C(=O)N[C@@H]([C@@H](C)O)C(=O)N(C)CC(=O)N1C (stereo partly drawn) [pd343] | 2.2
7 | CCCCN1CC(=O)N(C)[C@@H](Cc2ccccc2)C(=O)N[C@@H](CCC(=O)NS(C)(=O)=O)C(=O)N(C)[C@@H](CC(C)C)C(=O)N[C@@H]([C@@H](C)O)C(=O)N(CCCC)CC(=O)N(C)[C@@H](Cc2ccccc2)C(=O)N(C)[C@@H](CC(C)C)C(=O)N[C@@H](CC(C)C)C(=O)N(C)[C@@H](CC(C)C)C(=O)N[C@H](C(=O)N2CCCCC2)CC1=O [pd65] ([NBuGly][NMeF][Glu(NHSO2Me)][NMeL]T[NBuGly][NMeF][NMeL]L[NMeL]D-Piperidide; lactam N-11) | 0.06
8 | CCCCN1CC(=O)N(C)[C@@H](C(C)C)C(=O)N[C@H](C(=O)N2CCCCC2)CC(=O)N(C)[C@@H](C)C(=O)N[C@@H](CC(C)C)C(=O)N(C)[C@@H](CC(C)C)C(=O)N(C)[C@@H](Cc2ccccc2)C(=O)N[C@@H](CC(C)C)C(=O)N(C)[C@@H](Cc2ccccc2)C(=O)N(C)[C@@H](CCN2CCOCC2)C(=O)N[C@@H]([C@@H](C)O)C1=O [pd453] ([NMeA]L[NMeL][NMeF]L[NMeF][NMeAbu(4-morpholino)]T[NBuGly][NMeV]D-Piperidide; lactam N-11) | 2.3
9 | CC(C)C[C@@H]1NC(=O)[C@H](Cc2ccccc2)N(C)C(=O)[C@@H](C(C)C)NC(=O)C[C@@H](C(=O)N2CCCCC2)NC(=O)[C@H](C(C)C)N(C)C(=O)[C@H](Cc2ccccc2)N(C)C(=O)[C@H](CCCCC(F)F)NC(=O)[C@H](CC(C)C)N(C)C(=O)CN(C)C(=O)[C@H]([C@@H](C)O)NC(=O)[C@H](CC(C)C)N(C)C1=O [pd332] ([dV][NMeF]L[NMeL]T[Sar][NMeL][hNle(7,7-F2)][NMeF][NMeV]D-Piperidide; lactam N-11) | 1.5
10 | CCO[C@@H]1C[C@H]2C(=O)N[C@@H](COC(C)(C)C)C(=O)N(C)[C@@H](CC(C)C)C(=O)N(C)[C@@H](CC(C)C)C(=O)N3CCC[C@H]3C(=O)N[C@@H]([C@@H](C)O)C(=O)N(C)[C@@H](Cc3ccccc3)C(=O)N[C@@H](Cc3ccccc3)C(=O)N(C)[C@@H](CC(C)C)C(=O)N[C@H](C(=O)N3CCCCC3)CC(=O)N[C@H](CC(C)C)C(=O)N2C1 [pd378] ([dL][Hyp](Et)S(tBu)[NMeL][NMeL]PT[NMeF]F[NMeL]D-Piperidide; lactam N-11) | 1.2
11 | CC(C)C[C@@H]1NC(=O)[C@H](C)N(C)C(=O)C[C@@H](C(=O)N2CCCCC2)NC(=O)[C@H](CC(C)C)N(C)C(=O)CN(C)C(=O)[C@H]([C@@H](C)O)NC(=O)[C@H](C(C)C)N(C)C(=O)[C@H](CC(C)C)N(C)C(=O)[C@H](Cc2ccc(C(F)F)cc2)NC(=O)[C@H](CC(C)C)N(C)C(=O)[C@H](CC(C)C)N(C)C1=O [pd474] ([NMeA]L[NMeL][NMeL][Phe(4-CHF2)][NMeL][NMeV]T[Sar][NMeL]D-Piperidide; lactam N-11) | 4.5

same assay, conditions: human, Caco-2, Caco-2 (cm/sec)

Row | Structure (SMILES) | Papp A→B at 180 min [×10⁻⁶ cm/s]
12 | CC[C@H](C)[C@@H]1NC(=O)[C@H](Cc2ccccc2)N(C)C(=O)CN(C)C(=O)C[C@@H](C(=O)N2CCCCC2)NC(=O)[C@H](C(C)C)N(C)C(=O)[C@H](COC(C)(C)C)NC(=O)[C@H](CC(C)C)N(C)C(=O)[C@H](Cc2cccc(Cl)c2)N(C)C(=O)CN(C)C(=O)[C@H]([C@@H](C)O)NC(=O)[C@H](CC(C)C)N(C)C1=O [pd158] ([Sar][NMeF]I[NMeL]T[Sar][NMePhe(3-Cl)][NMeL]S(tBu)[NMeV]D-Piperidide; lactam N-11) | 1.4
13 | CC(C)C[C@@H]1NC(=O)[C@H](CC(C)C)N(C)C(=O)[C@H](C)N(C)C(=O)[C@H]([C@@H](C)O)NC(=O)[C@H](CC(C)C)N(C)C(=O)[C@H](COC(C)(C)C)NC(=O)[C@H](Cc2cccc(Cl)c2)N(C)C(=O)[C@H](CC(C)C)NC(=O)[C@H](C(C)C)N(C)C(=O)[C@@H](C(C)C)NC(=O)C[C@@H](C(=O)N2CCCCC2)NC1=O [pd171] ([dV][NMeV]L[NMePhe(3-Cl)]S(tBu)[NMeL]T[NMeA][NMeL]LD-Piperidide; lactam N-11) | 1.2
14 | CC(C)C[C@@H]1NC(=O)[C@H](Cc2ccccc2)N(C)C(=O)[C@H](COC(C)(C)C)NC(=O)[C@H](Cc2ccccc2)N(C)C(=O)[C@H](C)N(C)C(=O)[C@H](CC(C)C)N(C)C(=O)[C@@H](C)NC(=O)C[C@@H](C(=O)N2CCCCC2)N(C)C(=O)[C@H](Cc2ccccc2)N(C)C(=O)[C@H]([C@@H](C)O)NC(=O)[C@H](C(C)C)N(C)C1=O [pd208] ([dA][NMeL][NMeA][NMeF]S(tBu)[NMeF]L[NMeV]T[NMeF][NMeD]-Piperidide; lactam N-11) | 1.7
15 | CC[C@H](C)[C@@H]1NC(=O)[C@H](Cc2ccccc2)N(C)C(=O)[C@@H](C)NC(=O)C[C@@H](C(=O)N2CCCCC2)NC(=O)[C@H](CC(C)C)N(C)C(=O)[C@H](C)N(C)C(=O)[C@H](COC(C)(C)C)NC(=O)[C@H](C)N(C)C(=O)CN(C)C(=O)[C@H](Cc2ccc(O)cc2)NC(=O)[C@H](CC(C)C)N(C)C1=O [pd112] ([dA][NMeF]I[NMeL]Y[Sar][NMeA]S(tBu)[NMeA][NMeL]D-Piperidide; lactam N-11) | 0.11
16 | CC(C)C[C@H]1C(=O)N(C)[C@@H](Cc2c[nH]c3ccccc23)C(=O)N(C)[C@@H](Cc2ccccc2)C(=O)N[C@@H]([C@@H](C)O)C(=O)N(C)[C@@H](C)C(=O)N(C)[C@@H](CC(C)C)C(=O)N[C@H](C(=O)N2CCCCC2)CC(=O)N(C)[C@@H](C)C(=O)N(C)[C@@H](CC(C)C)C(=O)N(C)[C@@H](CC(C)C)C(=O)N[C@@H](C(C)C)C(=O)N1C [pd109] ([NMeA][NMeL][NMeL]V[NMeL][NMeW][NMeF]T[NMeA][NMeL]D-Piperidide; lactam N-11) | 0.0092

same assay, conditions: human, Caco-2, improved method, preincubation 20 to 24 hours; Papp, sample at 180 minutes; read-out: Caco-2

Row | Structure (SMILES) | Papp A→B at 180 min [×10⁻⁶ cm/s]
17 | CCCN1CC(=O)N[C@@H]([C@@H](C)O)C(=O)N[C@H](C(=O)N2CCCCC2)CC(=O)N(C)[C@@H](CC(C)C)C(=O)N[C@@H](Cc2ccc(C(F)(F)F)cc2)C(=O)N(C)[C@@H](CC(C)C)C(=O)N(C)[C@@H](CC(C)C)C(=O)N[C@@H](COC(C)(C)C)C1=O [pd147] ([NMeL][Phe(4-CF3)][NMeL][NMeL]S(tBu)[NPrGly]TD-Piperidide; lactam N-8) | 1.9

same assay, conditions: human, Caco-2; read-out: Caco-2

Row | Structure (SMILES) | Papp A→B at 180 min [×10⁻⁶ cm/s]
18 | CC[C@H](C)[C@@H]1NC(=O)[C@H](C)N(C)C(=O)C[C@@H](C(=O)N(C)[C@@H](Cc2ccccc2)C(=O)N[C@@H](C)C(=O)N2CCCCC2)NC(=O)[C@H](Cc2ccccc2)N(C)C(=O)CN(C)C(=O)[C@H]([C@@H](C)O)NC(=O)[C@H](C)N(C)C(=O)[C@H](C(C)C)N(C)C(=O)[C@H](Cc2ccccc2)NC(=O)[C@H](CC(C)C)N(C)C(=O)[C@H](CC(C)C)N(C)C1=O [pd222] ([NMeA]I[NMeL][NMeL]F[NMeV][NMeA]T[Sar][NMeF]D[NMeF]A-Piperidide; lactam N-11) | 1.1
